Literature values in patent US20260000700A1, “TARGETED LINEAR CONJUGATES COMPRISING POLYETHYLENEIMINE AND POLYETHYLENE GLYCOL AND POLYPLEXES COMPRISING THE SAME” (TARGIMMUNE THERAPEUTICS AG, priority 2022, published 2026).

Molecular target: EGFR (Homo sapiens, UniProt P00533)

Kd: 22 nM
Sequence: YHWYGYTPQNVI [GE-11]
